From article PMC11200585, “Prospects for Prostate Cancer Chemotherapy: Cytotoxic Evaluation and Mechanistic Insights of Quinolinequinones with ADME/PK Profile” (Biomedicines, 2024)

What was measured:
Format in all cases: cell-based, human
IGROV1 = assay: NCI-60 five-dose assay (ovarian cancer); conditions: SRB
SK-MEL-5 = assay: NCI-60 five-dose assay (melanoma); conditions: 48 h, SRB
SK-MEL-2 = assay: NCI-60 five-dose assay (melanoma); conditions: 48 h, SRB
UACC-62 = assay: NCI-60 five-dose assay (melanoma); conditions: 48 h, SRB
SR = assay: NCI-60 five-dose assay (leukemia); conditions: 48 h, SRB
U251 [1] = assay: NCI-60 five-dose assay (CNS cancer); conditions: SRB
HCT-116 = assay: NCI-60 one-dose screen (colon cancer); conditions: 10 µM single dose, 48 h
Protocol: (§1) The obtained quinolinequinones were submitted to NCI, Bethesda, USA, and, as per standard protocol of NCI, all compounds were evaluated for their antiproliferative activity at single-dose assay (10 µM concentration in DMSO) on a panel of 60 cancer cell lines derived from leukemia, non-small-cell lung, colon, CNS, melanoma, ovarian, renal, prostate, and breast, as per protocol. Tested compounds were added to the microtiter culture plates followed by incubation for 48 h at 37 °C. Sulforhodamine B (SRB), a protein-binding dye, is used for endpoint determination. The percent of the growth of the treated cells was determined in comparison to the untreated control cells and the results of each tested compound were reported. Data from one-dose experiments pertain to the percentage growth at 10 μM [16, 17, 18].

KM12 [2] = assay: NCI-60 one-dose screen (colon cancer); conditions: 10 µM single dose, 48 h
Protocol: as §1

HCC-2998 = assay: NCI-60 one-dose screen (colon cancer); conditions: 10 µM single dose
Protocol: as §1

HT29 [3] = assay: NCI-60 one-dose screen (colon cancer)
Protocol: as §1

COLO 205 [4] = assay: NCI-60 one-dose screen (colon cancer); conditions: 10 µM single dose, 48 h
Protocol: as §1

HCT-15 [5] = assay: NCI-60 one-dose screen (colon cancer); conditions: 10 µM single dose, 48 h
Protocol: as §1

SW-620 = assay: NCI-60 one-dose screen (colon cancer); conditions: 10 µM single dose, 48 h
Protocol: as §1

SNB-75 [6] = assay: NCI-60 one-dose screen (CNS cancer); conditions: 10 µM single dose, 48 h
Protocol: as §1

SF-295 [7] = assay: NCI-60 one-dose screen (CNS cancer); conditions: 10 µM single dose, 48 h
Protocol: as §1

SF-268 = assay: NCI-60 one-dose screen (CNS cancer); conditions: 10 µM single dose, 48 h
Protocol: as §1

SNB-19 = assay: NCI-60 one-dose screen (CNS cancer); conditions: 10 µM single dose, 48 h
Protocol: as §1

U251 [8] = assay: NCI-60 one-dose screen (CNS cancer); conditions: 10 µM single dose, 48 h
Protocol: as §1

SF-539 = assay: NCI-60 one-dose screen (CNS cancer); conditions: 10 µM single dose, 48 h
Protocol: as §1

SNB-75 [9] = assay: NCI-60 five-dose assay (CNS cancer); conditions: 48 h, SRB
HCT-15 [10] = assay: NCI-60 five-dose assay (colon cancer); conditions: 48 h, SRB
KM12 [11] = assay: NCI-60 five-dose assay (colon cancer); conditions: 48 h, SRB
HL-60(TB) = assay: NCI-60 five-dose assay (leukemia); conditions: 48 h, SRB
SN12C = assay: NCI-60 five-dose assay (renal cancer); conditions: 48 h, SRB
NCI-H23 = assay: NCI-60 five-dose assay (non-small cell lung cancer); conditions: 48 h, SRB
A549/ATCC = assay: as above; conditions: 48 h, SRB
MDA-MB-231/ATCC [12] = assay: NCI-60 five-dose assay (breast cancer); conditions: 48 h, SRB
LOX IMVI = assay: NCI-60 five-dose assay (melanoma); conditions: 48 h, SRB
COLO 205 [13] = assay: NCI-60 five-dose assay (colon cancer); conditions: 48 h, SRB
BT-549 = assay: NCI-60 one-dose screen (breast cancer); conditions: 10 µM single dose, 48 h
Protocol: as §1

MDA-MB-468 = assay: NCI-60 one-dose screen (breast cancer); conditions: 10 µM single dose, 48 h
Protocol: as §1

MDA-MB-231/ATCC [14] = assay: NCI-60 one-dose screen (breast cancer); conditions: 10 µM single dose, 48 h
Protocol: as §1

MCF7 = assay: NCI-60 one-dose screen (breast cancer); conditions: 10 µM single dose, 48 h
Protocol: as §1

HS 578T [15] = assay: NCI-60 one-dose screen (breast cancer); conditions: 10 µM single dose
Protocol: as §1

T-47D = assay: NCI-60 one-dose screen (breast cancer); conditions: 10 µM single dose, 48 h
Protocol: as §1

HT29 [16] = assay: NCI-60 five-dose assay (colon cancer); conditions: SRB
SF-295 [17] = assay: NCI-60 five-dose assay (CNS cancer); conditions: 48 h, SRB
HS 578T [18] = assay: NCI-60 five-dose assay (breast cancer); conditions: 48 h, SRB
[19] = Homo sapiens, read-out: LC50 (the source's name)

CCOc1ccccc1NC1=C(Cl)C(=O)c2nc(C)ccc2C1=O [AQQ2]
TGI (IGROV1; 48 h): 2.82 µM
GI50 (IGROV1; Homo sapiens, IGROV-1, 48 h): 1.37 µM
LC50 (IGROV1; Homo sapiens, IGROV-1, 48 h): 5.84 µM
TGI (SK-MEL-5): 3.13 µM
GI50 (SK-MEL-5; Homo sapiens): 1.74 µM
CC50 (SK-MEL-5; [19]): 5.65 µM
TGI (SK-MEL-2): 2.86 µM
GI50 (SK-MEL-2; Homo sapiens): 1.44 µM
CC50 (SK-MEL-2; [19]): 5.69 µM
TGI (UACC-62): 3.36 µM
GI50 (UACC-62; Homo sapiens): 1.8 µM
LC50 (concentration killing 50% of cells) (UACC-62; Homo sapiens): 6.28 µM
TGI (SR): 4.14 µM
GI50 (SR; Homo sapiens): 0.543 µM
CC50 (SR; [19]): > 100 µM
TGI (U251 [1]; 48 h): 3.27 µM
GI50 (U251 [1]; Homo sapiens, U-251, 48 h): 1.7 µM
LC50 (concentration killing 50% of cells) (U251 [1]; Homo sapiens, U-251, 48 h): 6.28 µM
GP (growth percentage) (HCT-116): −79.44%
GP (growth percentage) (KM12 [2]): 60.77%
GP (growth percentage) (HCC-2998; 48 h): 20.35%
inhibition at 10 µM (HCC-2998; Homo sapiens): 79.7%
GP (growth percentage) (HT29 [3]; 10 µM single dose, 48 h): 19.96%
inhibition at 10 µM (HT29 [3]; Homo sapiens, HT-29, 10 µM single dose): 80%
GP (growth percentage) (COLO 205 [4]): 99.24%
GP (growth percentage) (HCT-15 [5]): −76.56%
GP (growth percentage) (SW-620): −66.65%
GP (growth percentage) (SNB-75 [6]): 101.38%
GP (growth percentage) (SF-295 [7]): 90.72%
GP (growth percentage) (SF-268): 32.75%
GP (growth percentage) (SNB-19): 46.47%
GP (growth percentage) (U251 [8]): 37.89%
GP (growth percentage) (SF-539): −37.33%
TGI (SNB-75 [9]): 3.43 µM
GI50 (SNB-75 [9]; Homo sapiens): 1.63 µM
LC50 (50% lethal concentration) (SNB-75 [9]; Homo sapiens): 7.21 µM
TGI (HCT-15 [10]): 2.55 µM
GI50 (HCT-15 [10]; Homo sapiens): 1.13 µM
CC50 (HCT-15 [10]; [19]): 5.76 µM
TGI (KM12 [11]): 2.89 µM
GI50 (KM12 [11]; Homo sapiens): 1.41 µM
CC50 (KM12 [11]; [19]): 5.92 µM
TGI (HL-60(TB)): 2.92 µM
GI50 (HL-60(TB); Homo sapiens): 1.03 µM
CC50 (HL-60(TB); [19]): 8.29 µM
TGI (SN12C): 3.04 µM
GI50 (SN12C; Homo sapiens): 1.59 µM
LC50 (concentration killing 50% of starting cells) (SN12C; Homo sapiens): 5.8 µM
TGI (NCI-H23): 3.55 µM
GI50 (NCI-H23; Homo sapiens): 1.44 µM
CC50 (NCI-H23; [19]): 8.71 µM
TGI (A549/ATCC): 4.64 µM
GI50 (A549/ATCC; Homo sapiens): 2.06 µM
CC50 (A549/ATCC; [19]): 12.9 µM
TGI (MDA-MB-231/ATCC [12]): 2.38 µM
GI50 (MDA-MB-231/ATCC [12]; Homo sapiens): 1.07 µM
LC50 (concentration killing 50% of cells) (MDA-MB-231/ATCC [12]; Homo sapiens): 5.31 µM
TGI (LOX IMVI): 2.22 µM
GI50 (LOX IMVI; Homo sapiens): 0.839 µM
LC50 (concentration killing 50% of cells) (LOX IMVI; Homo sapiens): 5.33 µM
TGI (COLO 205 [13]): 3.66 µM
GI50 (COLO 205 [13]; Homo sapiens): 1.73 µM
CC50 (COLO 205 [13]; [19]): 7.74 µM
GP (growth percentage) (BT-549): 44.40%
GP (growth percentage) (MDA-MB-468): −90.72%
GP (growth percentage) (MDA-MB-231/ATCC [14]): −63.63%
GP (growth percentage) (MCF7): −59.68%
GP (growth percentage) (HS 578T [15]; 48 h): 1.05%
inhibition at 10 µM (HS 578T [15]; Homo sapiens): 99%
GP (growth percentage) (T-47D): −40.00%
TGI (HT29 [16]; 48 h): 15.2 µM
GI50 (HT29 [16]; Homo sapiens, HT-29, 48 h): 3.4 µM
LC50 (concentration killing 50% of cells) (HT29 [16]; Homo sapiens, HT-29, 48 h): 99.5 µM
TGI (SF-295 [17]): 4.20 µM
GI50 (SF-295 [17]; Homo sapiens): 2.03 µM
LC50 (50% lethal concentration) (SF-295 [17]; Homo sapiens): 8.7 µM
TGI (HS 578T [18]): 5.25 µM
GI50 (HS 578T [18]; Homo sapiens): 2.11 µM
CC50 (HS 578T [18]; [19]): > 100 µM
